Assay results reported in patent publication US20150374676A1, “HELICASE-PRIMASE INHIBITORS FOR USE IN A METHOD OF TREATING ALZHEIMER'S DISEASE” (AICURIS GMBH & CO. KG, priority 2013, published 2015).
Where two headings read alike, the source gives them in different places.

Assay: Single-dose escalation pharmacokinetics in volunteers
Type: in vivo, human
Settings: human, mean, n = 6; for Ae: excreted in urine; for AUC(0-inf) / Cmax: free base in plasma
Excerpt: Exposure of the free base form of N-[5-(aminosulfonyl)-4-methyl-1,3-thiazol-2-yl]-N-methyl-2-[4-(2-pyridinyl)-phenyl]acetamide to the human body may be measured by high pressure liquid chromatography (HPLC) by looking at different pharmacokinetic parameters in suitable bodily fluids such as for instance blood plasma and urine, the most common parameters being the Cmax, the so-called area under the curve (AUC), and the terminal half-life (t1/2Z). Hereto, the person skilled in the art understands that said parameters are determined by using adequate bioanalytical methods with adequate sensitivity, specificity, ruggedness, stability and repeatability, as for instance a qualified liquid chromatography triple quad mass spectrometry based method coupled with a suitable extraction method for the separation of the analyte from, e.g. the blood plasma.
Therefore, pharmacokinetic studies in human subjects were undertaken following both single and multiple dose administrations of the crystalline mono mesylate monohydrate salt of N-[5-(aminosulfonyl)-4-methyl-1,3-thiazol-2-yl]-N-methyl-2-[4-(2-pyridinyl)phenyl]acetamide, wherein the particle size distribution is preferably defined by d(0.1) from 2 to 100 μm, d(0.5) from 30 to 210 μm and d(0.9) from 70 to 400 μm with a specific surface area of the particles less than 1.0 m^2/g, and more preferably defined by d(0.1) from 10 to 75 μm, d(0.5) from 100 to 175 μm, d(0.9) from 200 to 350 μm with a specific surface area of the particles less than 0.3 m^2/g.
Single oral doses of the crystalline mono mesylate monohydrate salt of N-[5-(aminosulfonyl)-4methyl1,3thiazol-2-yl]-N-methyl-2-[4-(2-pyridinyl)phenyl]acetamide using the formulations in accordance with example a and Table a, were administered to six volunteers per dose step. The overall shape of the plasma concentrations vs. time profiles were similar across all doses applied (see FIG. 4 and FIG. 6).
Table b: Pharmacokinetic parameters after ascending single oral doses of crystalline mono mesylate monohydrate salt of N-[5-(aminosulfonyl)-4-methyl-1,3-thiazol-2-yl]-N-methyl-2-[4-(2-pyridinyl)phenyl]acetamide in the formulations in accordance with table a wherein the particle size distribution is preferably defined by d(0.1) from 2 to 100 μm, d(0.5) from 30 to 210 μm and d(0.9) from 70 to 400 μm with a specific surface area of the particles less than 1.0 m^2/g, and more preferably defined by d(0.1) from 10 to 75 μm, d(0.5) from 100 to 175 μm, d(0.9) from 200 to 350 μm with a specific surface area of the particles less than 0.3 m^2/g.
AUC0-∞: Area under the analyte vs. time concentration from time of administration up to infinity, calculated as
wherein AUC0-last is defined as the area under the analyte vs. time concentration up to time of the last qualifiable concentration, calculated by linear up/log down summation and Clast is defined as last quantifiable observed analyte concentration. λz is the apparent terminal elimination rate constant, determined by linear regression of terminal points of In-linear analyte concentration-time curve.
Cmax is the maximal observed analyte concentration and tmax is the time to reach Cmax;
t1/2z is defined as the apparent terminal elimination half-life, calculated as
MRT: Mean Residence Time; calculated AUMC divided by AUC, wherein AUMC is the area under the first moment of the concentration-time curve from zero up to ∞ with extrapolation of the terminal phase and AUC is the area under the concentration-time curve from zero up to ∞ with extrapolation of the terminal phase.
CL/F refers to the clearance after oral administration of a drug and Ae refers to the amount of drug excreted in the urine.

[1] = single oral dose 5 mg free base equivalent
[2] = single oral dose 10 mg free base equivalent
[3] = single oral dose 20 mg free base equivalent
[4] = single oral dose 40 mg free base equivalent
[5] = single oral dose 80 mg free base equivalent, females
[6] = single oral dose 80 mg free base equivalent, males
[7] = single oral dose 160 mg free base equivalent
[8] = single oral dose 240 mg free base equivalent
[9] = single oral dose 320 mg free base equivalent
[10] = single oral dose 400 mg free base equivalent
[11] = single oral dose 480 mg free base equivalent
[12] = single oral dose 600 mg free base equivalent

What does the source list for CS(=O)(=O)O.Cc1nc(N(C)C(=O)Cc2ccc(-c3ccccn3)cc2)sc1S(N)(=O)=O [mono mesylate monohydrate salt, N-[5-(aminosulfonyl)-4-methyl-1,3-thiazol-2-yl]-N-methyl-2-[4-(2-pyridinyl)-phenyl]acetamide mono methanesulfonic acid monohydrate]?
CL/F [1]: 0.89 L/h; t1/2z [1]: 80 h; Ae [1]: 0 % of dose; AUC(0-inf) [1]: 5.8 µg·h/mL; Cmax (single oral dose 5 mg free base equivalent, read-out: Cmax): 74 ng/mL; CL/F [2]: 0.87 L/h; t1/2z [2]: 85 h; Ae [2]: 0 % of dose; AUC(0-inf) [2]: 11.7 µg·h/mL; Cmax (single oral dose 10 mg free base equivalent, read-out: Cmax): 170 ng/mL; CL/F [3]: 1.10 L/h; t1/2z [3]: 76 h; Ae [3]: 0 % of dose; AUC(0-inf) [3]: 18.5 µg·h/mL; Cmax (single oral dose 20 mg free base equivalent, read-out: Cmax): 234 ng/mL; CL/F [4]: 1.00 L/h; t1/2z [4]: 72 h; Ae [4]: 0 % of dose; AUC(0-inf) [4]: 40.7 µg·h/mL; Cmax (single oral dose 40 mg free base equivalent, read-out: Cmax): 608 ng/mL; CL/F [5]: 0.85 L/h; t1/2z [5]: 58 h; Ae [5]: 0.31 % of dose; CL/F [6]: 0.94 L/h; t1/2z [6]: 74 h; Ae [6]: 0.16 % of dose; CL/F [7]: 1.28 L/h; t1/2z [7]: 63 h; Ae [7]: 0.15 % of dose; AUC(0-inf) [7]: 131 µg·h/mL; Cmax [7]: 2613 ng/mL; CL/F [8]: 1.15 L/h; t1/2z [8]: 64 h; Ae [8]: 0.21 % of dose; AUC(0-inf) [8]: 217 µg·h/mL; Cmax [8]: 3600 ng/mL; CL/F [9]: 1.47 L/h; t1/2z [9]: 57 h; Ae [9]: 0.16 % of dose; AUC(0-inf) [9]: 241 µg·h/mL; Cmax [9]: 4648 ng/mL; CL/F [10]: 1.31 L/h; t1/2z [10]: 57 h; Ae [10]: 0.15 % of dose; AUC(0-inf) [10]: 320 µg·h/mL; Cmax [10]: 6926 ng/mL; CL/F [11]: 1.33 L/h; t1/2z [11]: 53 h; Ae [11]: 0.26 % of dose; AUC(0-inf) [11]: 387 µg·h/mL; Cmax [11]: 6921 ng/mL; CL/F [12]: 2.00 L/h; t1/2z [12]: 52 h; Ae [12]: 0.09 % of dose; AUC(0-inf) [12]: 321 µg·h/mL; Cmax (single oral dose 600 mg free base equivalent, read-out: Cmax): 6440 ng/mL
